Experimental findings from patent publication US6635629B2, “3-nitrogen-6,7-dioxygen steroids and uses related thereto” (Inflazyme Pharmaceuticals Ltd., priority 2000, dated 2003) are described below.

For data set [1], the system named is sensitized Brown Norway rats. The data set is described as follows: Ovalbumin-induced accumulation of inflammatory cells in lung lavage fluid of sensitized Brown Norway rats. As to conditions: 5 mg/kg/day for 4 days, p.o., corn oil vehicle; relative to control animals. The class given is in vivo, rat. The method, boiled down: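 Male Brown Norway rats were sensitized i.p. with 1 mg ovalbumin on alum on day 1 and challenged on day 21 with nebulized 0.5% ovalbumin for 60 min. Compound was dosed in 300 μl corn oil or water, with vehicle controls.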

The test system of data set [2] is mouse ear edema. The data set is described as follows: Irritant-induced (phorbol 12-myristate 13-acetate) mouse ear edema. The class given is in vivo. Conditions: 15 mg/kg orally in 45% β-cyclodextrin in saline; 3 hours after PMA; compared to control animals. The procedure:
A number of mice are uniquely identified by placing a mark with an indelible marker on their tail. Mice are dosed orally with 15 mg/kg test compound in 100 μl of 45% β-cyclodextrin in saline. Mice are briefly anaesthesized with 2% halothane, and 2 μg of phorbol 12-myristate 13-acetate in 25 μl of acetone is applied to the inner and outer sides of the left ear of the mouse. Acetone is applied to the right ear of the mouse in the same manner to serve as a vehicle control. Control animals receive the same treatment but without any test compound. After 3 hours, mice are sacrificed by cervical dislocation, and a standard sized biopsy is excised from the ears and weighed to the nearest 1/10th of a mg. Data are analyzed by taking the difference of each left ear from the right ear, and then calculating the % inhibition of edema by (((mean Rx/mean irritant))×100)-100.
For example, compound 83 inhibits irritant-induced mouse ear edema by 38% compared to control animals.

Data set [3] in a line: Metabolic stability in human liver S9 fractions. The class given is in vitro ADME. As to conditions: human, 10 μM, pH 7. An excerpt: The therapeutic effectiveness of a test compound can be often directly related to its metabolic stability in vivo. The majority of known, marketed drugs are metabolized by a group of enzymes known as P450 enzymes. The S9 fraction of human liver contains all the P450 enzymes and also cytoplasmic enzymes that may be involved in the metabolism of new chemical entities. Metabolism in vitro using human S9 fractions is a standard assay to evaluate relative metabolic stability of new compounds. The test is performed as follows.
Reagents are thawed on ice and combined to make up a Master Mix as follows: Potassium phosphate (100 mM, pH 7), G6P (0.25 mM), G6PDH (2 U/ml), NADPH (1 mM), UDP (0.25 mM), APPS (0.25 mM), and S9 fraction (2 mg/ml). A volume of 498 μl of the Master mix is dispensed into each microcentrifuge tube. A volume of 2 μl of 2.5 mM test compound (final concentration of 10 μM) is dispensed into the center of the lid of the appropriate tube, and the lids gently closed to prevent mixing. Synchronous combination of test compound and master mix is achieved by simultaneous ten times inversion of the tubes, which are then incubated at 37° C. and shaken at 150 rpm for the appropriate incubation times. While incubation is in progress, all 0 time samples are mixed individually by three times inversion followed by the immediate addition of 500 μl ice cold acetonitrile with three times inversion to stop the reaction. Immediately after each 15 minutes and 30 minutes incubation is complete, ice cold acetonitrile is added to each tube and the tubes mixed by three times inversion. All sample tubes are incubated at −80° C. for a minimum of 15 minutes, thawed and remixed by inversion. Aliquots of 650 μl are transferred to Chromatographic Specialties micro-spin filter system tubes (0.2 μm nylon membrane, C618505) and centrifuged at 13,000 rpm for 48 seconds. The sample filtrates are stored at −80° C.
Sample filtrates are analyzed on LCMS, and percent remaining after 15 and 30 minute incubation is calculated relative to the 0 minute incubation.
The metabolic stability of various compounds are summarized in Table 10 as the percent remaining after 15 or 30 minutes incubation with human liver S9 fractions.

Turning to `C/C=C1/CCC2C3C(CC[C@]12C)[C@@]1(C)CC[C@H](N)CC1[C@@H](O)[C@@H]3O` (stereo partly drawn) [Compound 83], in data set [1], the “% inhibition of eosinophils” value is listed as 67%, the “% inhibition of lymphocytes” value came out at 38% and the “% inhibition of neutrophils” value stood at 34%. Moreover, the “inhibition of irritant-induced mouse ear edema” value in data set [2] was determined as 38%. Moreover, in data set [3] (s9, 15 min), the “% remaining after 15 min” value is recorded as 92 ± 19%. Moreover, the “% remaining after 30 min” value in data set [3] (s9, 30 min) was determined as 91 ± 21%.
